According to PMC7340254, “Structure-based screening of binding affinities via small-angle X-ray scattering” (IUCrJ, 2020):

Key:
[1] = biological target: T1, histidine-binding protein (HisBP) (Escherichia coli, UniProt P0AEU0); test: biochemical
Method: (§1) All ITC measurements were conducted on a Malvern MicroCal PEAQ ITC at 20°C with stirring at 200 rev min^−1 using the same buffer as in SAXS measurements. The cell was initially loaded with 200 µl of 20 µM protein with an initial ligand concentration of 200 µM in the syringe to quantify His:HisBP binding. This was further adjusted in subsequent runs to resolve weaker interactions as necessary.

[2] = biological target: T2, glutamine-binding protein (GlnBP) (Escherichia coli, UniProt P0AEQ3); test: SAXS-based ligand titration; parameters: species or system E. coli; conditions: ESRF, 3.0 × 10^12 photons, GlnBP 80 µM; 'no change' = no significant changes in scattering curves
T2 construct: Uniprot entry P0AEQ3, residues 23–248; made in house; host or cells: E. coli BL21(DE3)
Source text: Their preliminary results have been excluded from this report.

[3] = biological target: T1, histidine-binding protein (HisBP); test: biochemical; remark: listed apart in the source
Method: Titrations were conducted at fixed protein concentrations to exclude signal-to-noise factors. An initial mass concentration of 2.0 or 4.0 mg ml^−1 was employed in prospective experiments, then scaled to 2.0, 1.0, 0.5 and 0.25 mg ml^−1 in later concentration-variation studies. […] A total of eight beamline experiments were conducted, using the automated sample changing environments available on site, operated in constant-flow mode: three times at ESRF BM29, three at DESY P12, once at Australian Synchrotron SAXS/WAXS and once at Diamond B21. […] Furthermore, experiments at ESRF BM29 and Diamond B21 were carried out on site, while the DESY P12 experiment was carried out by mail-in. For these measurements, samples were prepared by pipetting ligand–protein mixtures onto 96-well plates prior to transport. As for the Australian Synchrotron measurements, apo–HisBP was lyophilized in its final buffer and reconstituted on site using pure H2O and then mixed with the ligands in 96-well plates.
Buffer-subtracted intensities provided from respective synchrotron pipelines were used as starting points for analysis. […] Thus, an intermediate value of 7.2 nm was fixed for all computations involving D max including V R.
This was used to assist in locating data points affected by sample handling errors or measurement failures, along with detectable aggregation. The ideal minimum angle after removal of parasitic scattering is 0.1–0.15 nm^−1, although a more conservative cutoff was used to collectively eliminate residual aggregation. The maximum usable q was determined by visual inspection of noise. The final ranges used across all HisBP beamline sessions were: 0.2–2.0 nm^−1 at 20 µM and below, 0.25–2.5 nm^−1 at 40 µM, and 0.3–3 nm^−1 above 80 µM. The q-ranges for DEBP and GlnBP were set to 0.1–2.8 nm^−1.
A common scattering reference is created per HisBP concentration and per beamline experiment by averaging apo protein replicates after discarding outliers. This reference is used for both V R and χlin computations.
To fit binding curves against metrics, we consider all titrations conducted per protein concentration per beamline experiment as a single set, after removing data points resulting from aggregation, preparation errors or measurement errors. […] Since the two-state binding curve at constant [R] cannot effectively discriminate between K D values much larger or smaller than [R], fitted K D values are limited to within four orders of magnitude of the receptor concentration (cf. Fig. S1). […] Error bars indicate σ of logK D from the ensemble of replicate predictions. For metrics where uncertainty was not computed (V R and V P), the uncertainty was estimated by single-point removal, where K D was recomputed after removal of each titration point. The σ of the resulting replicates are taken as the σ of logK D. To eliminate cases where the fitting process fails due to ill-constrained parameters, replicates were discarded if the fitted apo–holo differences were >3σ from the mean value of all replicates.

[4] = biological target: T2, glutamine-binding protein (GlnBP); test: Isothermal titration calorimetry (ITC, this work); parameters: species or system E. coli; conditions: 20°C, read-out: K D (ITC, this work)
Method: as §1

HisBP = biological target: HisBP; parameters: method as in Paul et al. (2016); conditions: ref Paul et al. (2016), read-out: K D (ITC, literature); cited from earlier work
[5] = biological target: T1, histidine-binding protein (HisBP); test: NMR chemical shift perturbation titration; parameters: Uniprot entry P0AEU0, residues 23–260; His6 tag with TEV cleavage site (N, cleaved yes); made in house; host or cells: E. coli BL21(DE3); species or system E. coli; conditions: HisBP 200 µM, 298 K, chemical shift perturbations; read-out: K D (NMR)
Source text: All NMR experiments have been carried out at 298 K on an 800 MHz Bruker Avance III NMR spectrometer equipped with a cryogenic probehead. […] Data were processed with NMRpipe (Delaglio et al., 1995[▸]), analyzed using NMRFAM-Sparky (Lee et al., 2015[▸]) and visualized with Python modules nmrglue and matplotlib (Helmus & Jaroniec, 2013[▸]; Hunter, 2007[▸]).
Backbone assignments of apo- and His-bound HisBP have been derived from BMRB entries 19242 and 19245 (Chu et al., 2013[▸]). The assignment of Arg-bound HisBP is produced by extending the apo-HisBP assignment along titrations, leaving sites in slow exchange unassigned. For affinity computations based on chemical shift perturbations, ^1H and ^15N shifts have been combined to a composite shift δ = [(δH)^2 + (0.2δN)^2]^1/2. The derivation of an overall dissociation constant from chemical shift perturbations follows the work by Williamson (2013[▸]), where the shift in peak position is used to derive free and bound populations without considering peak intensities. The effect of site-specific exchange rates upon peak positions is taken into account (London, 1993[▸]). We discarded residues with either insignificant shifts at saturation (δ < 0.05) or which were in slow exchange such that peak positions alone were no longer informative. […]

GlnBP = biological target: GlnBP; parameters: method as in Clifton & Jackson (2016); conditions: ref Clifton & Jackson (2016), read-out: K D (ITC, literature); cited from earlier work

T1 sequence (P0AEU0 23-260): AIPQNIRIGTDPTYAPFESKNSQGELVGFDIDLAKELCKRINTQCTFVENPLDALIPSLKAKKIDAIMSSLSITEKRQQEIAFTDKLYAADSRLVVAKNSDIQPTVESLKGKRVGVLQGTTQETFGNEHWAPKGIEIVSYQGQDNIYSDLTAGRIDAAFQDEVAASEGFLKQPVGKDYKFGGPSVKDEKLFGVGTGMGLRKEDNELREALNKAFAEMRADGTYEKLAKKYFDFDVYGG
T2 sequence (P0AEQ3 23-248): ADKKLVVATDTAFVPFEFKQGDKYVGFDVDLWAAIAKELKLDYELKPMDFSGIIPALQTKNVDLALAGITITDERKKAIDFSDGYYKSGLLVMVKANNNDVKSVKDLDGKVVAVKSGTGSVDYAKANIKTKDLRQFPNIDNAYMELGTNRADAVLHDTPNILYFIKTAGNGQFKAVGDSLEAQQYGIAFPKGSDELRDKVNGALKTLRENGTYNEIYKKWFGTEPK

N=C(N)NCCC[C@H](N)C(=O)O [Arg, arginine]
Kd [1]: 2060 ± 220 nM | K D derived from V R titration curves (result in words) [2]: No change | Kd ([3]; K D fitted to SAXS V R titration curves, AustSynch, 20s exposure, […] 10^13 photons, HisBP 19 µM): 2800 ± 310 nM | Kd ([3]; K D fitted to SAXS V R titration curves, AustSynch, 20s exposure, […] 10^13 photons, HisBP 38 µM): 3000 ± 1400 nM | Kd ([3]; K D fitted to SAXS V R titration curves, AustSynch, 20s exposure, […] 10^13 photons, HisBP 76 µM): 5500 ± 1400 nM | Kd ([3]; K D fitted to SAXS V R titration curves, DESY, 4s exposure, […] 10^13 photons, HisBP 20 µM): 33000 ± 4500 nM | Kd ([3]; K D fitted to SAXS V R titration curves, DESY, 4s exposure, […] 10^13 photons, HisBP 40 µM): 74000 ± 19000 nM | Kd ([3]; K D fitted to SAXS V R titration curves, DESY, 4s exposure, […] 10^13 photons, HisBP 80 µM): 5900 ± 600 nM | Kd ([3]; K D fitted to SAXS V R titration curves, Diamond, 40s exposure, […] 10^14 photons, HisBP 10 µM): 370 ± 140 nM | Kd ([3]; K D fitted to SAXS V R titration curves, Diamond, 40s exposure, […] 10^14 photons, HisBP 20 µM): 920 ± 110 nM | Kd ([3]; K D fitted to SAXS V R titration curves, Diamond, 40s exposure, […] 10^14 photons, HisBP 40 µM): 4800 ± 480 nM | Kd ([3]; K D fitted to SAXS V R titration curves, Diamond, 40s exposure, […] 10^14 photons, HisBP 80 µM): 7300 ± 1900 nM | Kd ([3]; K D fitted to SAXS V R titration curves, ESRF, 5s exposure, 3.0 × 10^12 photons, HisBP 38 µM): 2000 ± 1900 nM | Kd ([3]; K D fitted to SAXS V R titration curves, ESRF, 5s exposure, 3.0 × 10^12 photons, HisBP 160 µM): 710 ± 1000 nM | Kd ([3]; KD fitted to SAXS Rg curves, AustSynch, 20s exposure, HisBP 19 µM): 7700 ± 2000 nM | Kd ([3]; KD fitted to SAXS Rg curves, AustSynch, 20s exposure, HisBP 38 µM): 52 ± 40 nM | Kd ([3]; KD fitted to SAXS Rg curves, AustSynch, 20s exposure, HisBP 76 µM): 1600 nM | Kd ([3]; KD fitted to SAXS Rg curves, DESY, 4s exposure, HisBP 20 µM): 15000 ± 6800 nM | Kd ([3]; KD fitted to SAXS Rg curves, DESY, 4s exposure, HisBP 40 µM): 150000 ± 52000 nM | Kd ([3]; KD fitted to SAXS Rg curves, DESY, 4s exposure, HisBP 80 µM): 27000 ± 7100 nM | Kd ([3]; KD fitted to SAXS Rg curves, Diamond, 40s exposure, HisBP 20 µM): 810 nM | Kd ([3]; KD fitted to SAXS Rg curves, Diamond, 40s exposure, HisBP 40 µM): 1500 ± 4400 nM | Kd ([3]; KD fitted to SAXS Rg curves, Diamond, 40s exposure, HisBP 80 µM): 1100 ± 2500 nM | Kd ([3]; KD fitted to SAXS Rg curves, ESRF, 5s exposure, HisBP 38 µM): 2600 nM | Kd ([3]; KD fitted to SAXS Rg curves, ESRF, 5s exposure, HisBP 160 µM): 390 ± 280 nM | Kd ([3]; KD fitted to SAXS Vc curves, AustSynch, 20s exposure, HisBP 19 µM): 2100 ± 6000 nM | Kd ([3]; KD fitted to SAXS Vc curves, AustSynch, 20s exposure, HisBP 38 µM): 3700 ± 6600 nM | Kd ([3]; KD fitted to SAXS Vc curves, AustSynch, 20s exposure, HisBP 76 µM): 2000 nM | Kd ([3]; KD fitted to SAXS Vc curves, DESY, 4s exposure, HisBP 20 µM): 6300 nM | Kd ([3]; KD fitted to SAXS Vc curves, DESY, 4s exposure, HisBP 80 µM): 17 ± 41 nM | Kd ([3]; KD fitted to SAXS Vc curves, Diamond, 40s exposure, HisBP 20 µM): 6300 nM | Kd ([3]; KD fitted to SAXS Vc curves, Diamond, 40s exposure, HisBP 80 µM): 38 nM | Kd ([3]; KD fitted to SAXS Vc curves, ESRF, 5s exposure, HisBP 7.6 µM): 280 ± 720 nM | Kd ([3]; KD fitted to SAXS Vc curves, ESRF, 5s exposure, HisBP 38 µM): 75 nM | Kd ([3]; KD fitted to SAXS Vc curves, ESRF, 5s exposure, HisBP 160 µM): 910 nM | Kd ([3]; KD fitted to SAXS χlin. curves, AustSynch, 20s exposure, HisBP 19 µM): 11000 ± 7600 nM | Kd ([3]; KD fitted to SAXS χlin. curves, AustSynch, 20s exposure, HisBP 38 µM): 10000 ± 2000 nM | Kd ([3]; KD fitted to SAXS χlin. curves, AustSynch, 20s exposure, HisBP 76 µM): 11000 ± 1400 nM | Kd ([3]; KD fitted to SAXS χlin. curves, DESY, 4s exposure, HisBP 20 µM): 4100 ± 2100 nM | Kd ([3]; KD fitted to SAXS χlin. curves, DESY, 4s exposure, HisBP 40 µM): 140000 ± 42000 nM | Kd ([3]; KD fitted to SAXS χlin. curves, DESY, 4s exposure, HisBP 80 µM): 42000 ± 6700 nM | Kd ([3]; KD fitted to SAXS χlin. curves, Diamond, 40s exposure, HisBP 20 µM): 1400 nM | Kd ([3]; KD fitted to SAXS χlin. curves, Diamond, 40s exposure, HisBP 40 µM): 23000 ± 7100 nM | Kd ([3]; KD fitted to SAXS χlin. curves, Diamond, 40s exposure, HisBP 80 µM): 12 ± 20 nM | Kd ([3]; KD fitted to SAXS χlin. curves, ESRF, 5s exposure, HisBP 7.6 µM): 1900 ± 2000 nM | Kd ([3]; KD fitted to SAXS χlin. curves, ESRF, 5s exposure, HisBP 152 µM): 91 nM | Kd [4]: 78900 ± 8600 nM | Kd (HisBP): 3000 ± 1000 nM | Kd [5]: 560 nM | Kd (GlnBP): 93800 ± 7400 nM
